“Also recorded” adds a separate entry of the source. No end group written: not given here.
What was measured:
Format in all cases: in vivo, rat
[1] = system: rats, formalin-injected hind paw; assay: Formalin-induced flinching (paw formalin test); details: IT injection 3-30 μg 10 minutes prior to formalin; 30 μg: P<0.05 versus vehicle
Procedure: In recent work it was shown that inhibition of spinal p38 MAP kinase attenuated formalin-induced flinching. Svensson et al., J Neurochem 86: 1534-1544, 2003b. To examine the contribution of p38α and p38β in this experimental model of hyperalgesia, animals were injected with p38α, p38β AS or MS IT for five days. These animals were then examined on the formalin test. Unilateral intraplantar formalin solution (2.5%) caused a biphasic flinching pattern where the first 9 minutes are referred to as phase I and the following 50 minutes (min 10-60) as phase II. Yaksh et al., J Neurosci 21: 5847-5853, 2001a. The phase II flinching is considered to represent afferent input initiated spinal facilitation. Dickenson and Sullivan, Neurosci Lett 83: 207-211, 1987; Puig and Sorkin, Pain 64: 345-355, 1996. […] To further confirm the role of p38 to injury-induced pain behavior, a pharmacological inhibitor was also studied: SB203580, a p38α/β non-selective inhibitor.
To quantify formalin induced flinching, an automated sensing system was employed. Yaksh et al., J Appl Physiol 90: 2386-2402, 2001b. Briefly, a soft metal band was placed on the hind paw of the animal being tested. Animals were allowed to acclimate in individual Plexiglas chambers for 30 min before being moved to a test chamber. Just before the animals were placed into the test chamber, they were briefly restrained in a cloth towel, and 2.5% formalin (50 μl) was injected into the dorsal side of the banded paw. Nociceptive behavior was quantified by automatically counting the incidences of spontaneous flinching or shaking of the injected paw. The flinches were counted for 1-min periods for 60 minutes and the flinch data are expressed as number of flinches per min and total flinches observed during phase I (0-9 min) and phase II (10-60 min).

PGE2 = assay: IT SP-evoked spinal PGE2 release (intrathecal dialysis, ELISA)
From the text: It was previously shown that intrathecal injection of SP and NMDA, but not vehicle, evokes PGE2 release assessed by spinal dialysis. Hua et al., Neuroscience 89: 525-534, 1999b.; Svensson et al., Neuroreport 14: 1153-1157, 2003a. It has been reported that PLA2 which generates free arachidonic acid necessary for eicosanoid synthesis, requires phosphorylation to become fully activated and that this phosphorylation can be mediated by p38 MAP kinase. Borsch-Haubold et al., Eur J Biochem 245: 751-759, 1997. The effect of spinal p38α/β inhibition was assessed on IT S P-evoked PGE2 release by injecting SB203580 15 min prior to IT SP. Resting release of PGE2 was determined after a washout period of 30 min. In the absence of pretreatment, baseline dialysate concentrations were determined to be 243±13 femtomol/100 μl perfusate (N=20). If SP (30 nmol) produced a 6-8 fold increase in PGE2 level in intrathecal CSF (FIG. 8A). […] If injection of vehicle prior to IT SP ad no effect on IT SP-evoked PGE2 release.
(A) Bar graph showing PGE2 concentration (fmol/100 μl) measured in cerebrospinal fluid collected by in vivo spinal dialysis of conscious rats before and after IT injection of substance P(SP, 30 nmol) and SB302580 (30 μg). Spinal dialysate is removed and assayed for PGE2 by ELISA at baseline (B, average of two 15 min fractions collected prior to IT injection of SP) and F1: 0-15 minutes, F2: 15-30 minutes and F3: 30-45 minutes and 45-60 minutes after SP injection. Rats received IT SP or IT SB203580 (α/βp38 inhibitor) 15 minutes prior to IT SP. (B) PGE2 release is presented as area under curve (AUC) calculated 60 minutes after IT injection of SP with or without pretreatment with p38 inhibitors. […] Each bar represents the average and SEM for 4-8 rats per group and (*) represents P<[…] versus baseline.
Intrathecal Dialysis & PGE2 assay. Dialysis experiments were conducted in unanethetized rats 4-5 days after the implant. […] The concentration of PGE2 in spinal dialysate was measured by ELISA using a commercially available kit (Assay Designs 90001, Assay Designs, Ann Arbor, Mich.). […]

[2] = system: rats, IT SP (spinal NK-1 receptors); assay: IT substance P-evoked thermal hyperalgesia (paw withdrawal latency, Hargreaves device); details: IT SP 30 nmol at T=0, versus IT saline
Procedure: (§1) Yaksh et al., Nature 286: 155-157, 1980; Yaksh, Trends Pharmacol Sci 20: 329-337, 1999. […] Malmberg and Yaksh, Science 257: 1276-1279, 1992; Svensson et al., J Neurochem 86: 1534-1544, 2003. […] To investigate the contribution of p38α and p38β to SP-evoked hyperalgesia and p38 phosphorylation, spinal delivery of p38α and p38β AS and MS was carried out. Thermal withdrawal latencies was assessed after IT injection of SP and lumbar spinal cords collected immediately to compare the degree of spinal p38 phosphorylation at the hypothesized time of peak phosphorylation. IT injection of SP into the MS group produced an expected reduction of thermal withdrawal latency in comparison with IT saline injection into to vehicle treated animals (FIG. 7C). […] In contrast, IT SP-induced thermal hyperalgesia was attenuated in rats which had received p38β AS (FIG. 7E). […] Stripping and reprobing the western blot membranes confirmed that p38α protein expression was knocked down in p38α AS treated group (FIG. 7D) as well as p38β in the p38β AS group (FIG. 7F).
Nociceptive models. To directly induce spinal sensitization, rats received intrathecal injections of sP (30 nmol) which activates spinal NK-1 receptors and produces thermal hyperalgesia. Hua et al., Neuroscience 89: 525-534, 1999a; Piercey et al., Science 214: 1361-1363, 1981; Yashpal and Henry, Can J Physiol Pharmacol 61: 303-307, 1983. Thermally evoked paw withdrawal responses were assessed using a Hargreaves type testing device. Dirig et al., J Neurosci Methods 76: 183-191, 1997. Briefly, rats were placed on a glass surface maintained at 30° C. The thermal nociceptive stimulus originates from a projection bulb below the glass surface, and the stimulus is delivered separately to one hind paw at a time. The animals were allowed to acclimatize on the glass surface and basal paw withdrawal latencies (PWL) were then assessed for left and right paws at time (T)=−40, =30 and −20 min and expressed as the mean of the six measurements. At T=−10 min the animals received intrathecal vehicle or drug and at T=0, sP was injected. Withdrawal latencies were then assessed at T=15, 30, 45 and 60 min. Paw withdrawal latency for each group was expressed as the mean at each time point.

[3] = system: phosphorylated p38 (P-p38); assay: IT substance P-evoked spinal p38 phosphorylation (Western blot); details: IT SP 30 nmol, at 30 min, N=6, P<0.05
Procedure: as §1
(A) Graph displaying paw withdrawal latency (PWL) plotted versus time. […] (B) Representative western blots showing levels of P-p38, total p38 and β-actin in lumbar spinal cord at different time points after IT injection of SP (30 nmol). IT-SP induced p38 phosphorylation peaks 30 minutes after SP injection. (C, E) Graph showing PWL assessed 15 and […] after bolus injection of IT saline or IT SP injection in rats treated with IT ACSF, MS (30 μg), p38α AS (30 fig) or p38β AS (20 μg) daily for five days. […] IT injection of MS or ACSF had no effect on IT SP-evoked thermal hyperalgesia. Each time point represents the mean ±SEM (n=4-5 per group). (D, F) Representative western blots showing the level of P-p38, p38α and p38β and β-actin protein expression assessed 30 minutes after IT SP injection.
Western blot. Prior to sacrifice, rats were deeply anesthetized and after decapitation the spinal cords were ejected from the vertebral column by a saline-filled syringe. The lumbar part of the spinal cord was immediately homogenized in extraction buffer (50 mM Tris buffer, pH 8.0, containing 0.5% Triton X-100, 150 mM NaCl, 1 mM EDTA, phosphatase and protease inhibitors) by sonication. […] After washing, the antibody-protein complexes were probed with appropriate secondary antibodies labeled with horseradish peroxidase for 1 hr at room temperature and detected with chemiluminescent reagents (SuperSignal, Pierce, Rockford, Ill.). […] Intensity of immunoreactive bands was quantified using ImageQuant software (Molecular Dynamics, Sunnyvale, Calif.). p38 immuno-positive bands were normalized relative to β-actin.

| Compound | flinching during phase II [1] | SP-evoked release of PGE2, AUC between groups (PGE2; 30 μg IT prior to SP, AUC 60 minutes after IT SP, unpaired t-test P<0.05) | IT SP-evoked PGE2 release (PGE2; pretreatment 30 μg IT, 15 min prior to IT SP 30 nmol) | paw withdrawal latency (PWL) after IT injection [2] | phosphorylation of spinal p38, peak effect, increase as compared to saline group [3] [%] | increase in PGE2 level in intrathecal CSF (PGE2; IT SP 30 nmol, spinal dialysis, conscious rats) |
| --- | --- | --- | --- | --- | --- | --- |
| C[S+]([O-])c1ccc(-c2nc(-c3ccncc3)c(-c3ccc(F)cc3)[nH]2)cc1 (stereo not drawn) [SB203580, reference compound] | dose-dependent attenuation; also recorded: statistically different | significantly lower | prevented IT SP-evoked PGE2 release |  |  |  |
| SP: substance P (Sigma), injected IT to activate spinal NK-1 receptors and produce thermal hyperalgesia (RPKPQQFFGLM-NH2; UniProt P20366 58-68, looked up) [reference compound] |  |  |  | transient decrease in PWL | 224±41 | 6-8 fold |

Source: patent US20080206253A1, “Method For Preventing or Treating Pain in a Mammal” (priority 2005, published 2008)
